Each molecule was assayed against T1, human α7 nAChR (Homo sapiens, UniProt P36544) (assay: Evaluation of PAM activity with human α7 nACh receptor stably expressing cells (aequorin luminescence, FDSS7000)). Details: result in words; ratio of RLU (Max-Min) to control wells, ACh EC20.
T1 construct: expressed in transfected cells; host or cells: GH4C1 cells derived from rat pituitary (ATCC CCL-82.2)
Format: cell-based
Text: Human α7 nAChR stably expressing cells were generated and cultured. In detail, GH4C1 cells derived from rat pituitary (cat#CCL-82.2, ATCC, USA) were used as a host cell. PcDNA3.1Zeo vector containing a nucleotide sequence encoding a protein GenBank BAC81731 and pcDNA3.1 vector containing human α7 nAChR gene (cat#V790-20, invitrogen, Carlsbad, Calif., USA) were transfected to the cells to give aequorins and human α7 nAChR stably expressing cells respectively. The aequorins and human α7 nAChR stably expressing cells were screened with Zeocin (cat#R25001, invitrogen, Carlsbad, Calif., USA) and Geneticin (cat #10131-027, invitrogen, Carlsbad, Calif., USA) respectively.
The cells were cultured in F-10 Nutrient Mixture (Ham) medium (cat #11550-043, invitrogen, Carlsbad, Calif., USA) containing 2.5% fetal bovine serum (cat #2917354, ICN Biomedicals, Inc, USA), 15% inactivated horse serum (cat #26050-088, invitrogen, Carlsbad, Calif., USA), 1 μg/mL Geneticin, and 5 μg/mL Puromycin (cat #14861-84, invitrogen, Carlsbad, Calif., USA), in a Collagen Type 1-coated dish (cat #4030-010, iwaki, Tokyo, Japan). During the culture, the medium was replaced with fresh medium in every 2 to 3 days, and the cells were treated with TrypLE Express (cat #45604-021, invitrogen, Carlsbad, Calif., USA) to collect them in every 7 days. Thus, the cells were subcultured.
7 Days after subculturing, the cells were treated with TrypLE Express to collect them when they were about 80% confluent. The cells were suspended in a reaction medium containing Hanks (cat #14065-056, invitrogen, Carlsbad, Calif., USA)/20 mmol/L Hepes (cat #15630-080, invitrogen, Carlsbad, Calif., USA), Buffer (pH 7.4), F-10 Nutrient Mixture (Ham), and 0.1 mg/mL Geneticin, and the suspension was seeded in a 384-well plate (cat #781090, Greiner, Germany) at 20000 cells/25 μL per well.
On the next day after seeding, Viviren (cat#E649X, Promega, Madison, Wis., USA) was added to the medium so that the final concentration could be 4 μmol/L (15 μL/well). The plates were centrifuged and then placed in the dark for 4 hours at room temperature.
Each of the test compounds was dissolved in DMSO to prepare each test sample at a concentration of 1000-fold the final concentration. To the solution was added Hanks/20 mM HEPES/0.2% BSA (cat#A3803, Sigma, St. Louis, Mo., USA), and the concentration was adjusted to 6-fold the final concentration.
FDSS7000 (Hamamatsu Photonics) was used to detect the luminescence signal evoked by α7 nAChR stimulation. The cells and a luminescent substrate were put on a plate, and the test sample was added thereto. […] After the addition of ACh, the luminescence signal (the central wavelength: 465 nm) was measured for 138 seconds to calculate RLU (Max-Min). The ratio of the RLU (Max-Min) of the test-compound-containing wells to that of the control wells was defined as PAM activity.

T1 sequence (P36544 23-502): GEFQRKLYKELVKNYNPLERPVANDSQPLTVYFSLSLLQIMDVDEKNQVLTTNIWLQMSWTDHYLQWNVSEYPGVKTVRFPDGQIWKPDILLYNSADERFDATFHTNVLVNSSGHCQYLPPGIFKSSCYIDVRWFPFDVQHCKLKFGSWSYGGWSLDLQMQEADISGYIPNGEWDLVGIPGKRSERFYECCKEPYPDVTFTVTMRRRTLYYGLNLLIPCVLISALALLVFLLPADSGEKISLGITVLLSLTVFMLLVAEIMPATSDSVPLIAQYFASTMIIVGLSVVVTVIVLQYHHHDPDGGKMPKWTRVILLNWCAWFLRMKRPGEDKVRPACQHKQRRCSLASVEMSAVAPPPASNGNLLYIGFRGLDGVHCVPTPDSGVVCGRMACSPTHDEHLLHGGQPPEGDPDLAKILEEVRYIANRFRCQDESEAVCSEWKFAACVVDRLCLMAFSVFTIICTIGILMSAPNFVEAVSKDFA

For `CCc1ccc2c(cnn2[C@H]2CC[C@@H](NC(=O)C3CCC(F)(F)CC3)CC2)c1` [Example 4, N-(cis-4-(5-ethyl-1H-indazol-1-yl)cyclohexyl)-4,4-difluorocyclohexanecarboxamide], the “PAM activity for α7 nAChR” value was “stronger PAM activity than others”.
For `COc1ccc2c(cnn2C2CCN(C(=O)NC3CCCCC3)CC2)c1` [Example 40], the “PAM activity for α7 nAChR” value was “stronger PAM activity than others”.
For `CCc1ccc2c(cnn2[C@H]2CC[C@@H](NC(=O)C3CCCCC3)CC2)c1` [Example 119], the “PAM activity for α7 nAChR” value was “stronger PAM activity than others”.

Same assay, conditions: test compound 10 μmol/L; ACh added at EC20; ratio of RLU (Max-Min) of test wells to control wells

Point of comparison: `O=C(NC1CCOCC1)N1CCC(n2ncc3cc(C4CC4)ccc32)CC1` [Example 75], “α7PAM (%) @ 10 μmol/L” value 621%. Against it:
- O=C(NC1CCCCC1)N1CCC(n2ncc3cc(C4CC4)ccc32)CC1 [Example 199] — higher, 1497%
- COc1ccc2c(cnn2C2CCN(C(=O)N[C@@H]3CCCCC3(F)F)CC2)c1 [Example 85] — higher, 1081%
- [2H]C([2H])([2H])O[C@H]1CC[C@H](NC(=O)N2CCC(n3ncc4cc(OC(F)(F)F)ccc43)CC2)CC1 [Example 226, N-{trans-4-[(^2H3)methoxy]cyclohexyl}-4-[5-(trifluoromethoxy)-1H-indazol-1-yl]piperidine-1-carboxamide] — lower, 594%
- COC1CCC(NC(=O)N2CCC(n3ncc4cc(Br)ccc43)CC2)CC1 (stereo not drawn) [Example 71] — higher, 763%
- O=C(NC1CCC(F)(F)CC1)N1CCC(n2ncc3cc(-c4cccnc4)ccc32)CC1 [Example 196] — lower, 229%
- COc1ccc2c(c1)c(C1CCOCC1)nn2C1CCN(C(=O)NC2CCC(F)(F)CC2)CC1 [Example 261] — higher, 924%
- COc1c(C2CC2)ccc2c1cnn2C1CCN(C(=O)NC2CCOCC2)CC1 [Example 303] — higher, 1058%
- CCc1nn(C2CCN(C(=O)NC3CCC(F)(F)CC3)CC2)c2ccc(OC)cc12 [Example 241] — lower, 358%
- COC1CC1c1ccc2c(cnn2C2CCN(C(=O)NC3CCC(F)(F)CC3)CC2)c1 (stereo not drawn) [Example 248] — higher, 851%
- [2H]C([2H])([2H])O[C@H]1CC[C@H](NC(=O)N2CCC(n3nc(C4CCOCC4)c4cc(C)ccc43)CC2)CC1 [Example 316] — higher, 807%
- CC(C)Oc1ccc2c(cnn2C2CCN(C(=O)c3ccc(F)cn3)CC2)c1 [Example 115] — lower, 182%
- Cc1ccc2c(cnn2C2CCN(C(=O)N[C@H]3CC[C@H](OCC4CC4)CC3)CC2)c1 [Example 162] — higher, 1874%
- O=C(NC1CCC(F)(F)CC1)N1CCC(n2ncc3ccccc32)CC1 [Example 38] — higher, 1101%
- COCc1c(C)ccc2c1cnn2C1CCN(C(=O)N[C@H]2CC[C@H](OC)CC2)CC1 [Example 214] — lower, 207%
- [2H]C([2H])([2H])Oc1c(C2CC2)ccc2c1cnn2C1CCN(C(=O)NC2CCOCC2)CC1 [Example 323] — higher, 886%
- CCc1c(OC)ccc2c1cnn2C1CCN(C(=O)NC2CCOCC2)CC1 [Example 289] — lower, 255%
- COc1ccc2c(c1)c(C1CC1)nn2C1CCN(C(=O)N[C@H]2CC[C@H](OC)CC2)CC1 [Example 257] — higher, 801%
- COC1CCC(C(=O)N2CCC(n3ncc4cc(C5CC5)ccc43)CC2)CC1 (stereo not drawn) [Example 141] — lower, 448%
- COC1CC1c1ccc2c(cnn2C2CCN(C(=O)N[C@H]3CC[C@H](OC)CC3)CC2)c1 (stereo partly drawn) [Example 246] — lower, 364%
- COC1CCC(NC(=O)N2CCC(n3nc(C4CCOCC4)c4cc(C)ccc43)CC2)CC1 (stereo not drawn) [Example 55] — lower, 603%
- CCc1ccc2c(cnn2C2CCCN(C(=O)NC3CCC(F)(F)CC3)CC2)c1 (stereo not drawn) [Example 73] — lower, 453%
- COc1ccc2c(c1)c(C1=CCOCC1)nn2C1CCN(C(=O)NC2CCC(F)(F)CC2)CC1 [Example 259] — lower, 309%
- COC1CCC(NC(=O)N2CCC(n3ncc4cc(Cl)ccc43)CC2)CC1 (stereo not drawn) [Example 35] — lower, 411%
- COCC1CCC(NC(=O)N2CCC(n3ncc4cc(Br)ccc43)CC2)CC1 (stereo not drawn) [Example 238] — higher, 1031%
- Cc1cccc2c1cnn2C1CCN(C(=O)NC2CCC(F)(F)CC2)CC1 [Example 93] — higher, 934%
- CCc1ccc2c(cnn2C2CCN(C(=O)C3CCOCC3)CC2)c1 [Example 111] — lower, 410%
- [2H]C([2H])([2H])O[C@H]1CC[C@H](NC(=O)N2CCC(n3ncc4cc(CC)ccc43)CC2)CC1 [Example 325] — higher, 997%
- COC(C)Cc1ccc2c(cnn2C2CCN(C(=O)NC3CCC(F)(F)CC3)CC2)c1 (stereo not drawn) [Example 251] — higher, 868%
- O=C(NC1CCOCC1)N1CCC(n2ncc3cc(OC(F)F)ccc32)CC1 [Example 292] — lower, 413%
- CCOc1nn(C2CCN(C(=O)NC3CCOCC3)CC2)c2ccc(OC(F)(F)F)cc12 [Example 265] — lower, 181%
- [2H]C([2H])([2H])Oc1ccc2c(cnn2C2CCN(C(=O)NC3CCC(F)(F)CC3)CC2)c1 [Example 319] — higher, 1337%
- CCOc1cccc2c1cnn2C1CCN(C(=O)NC2CCCCC2)CC1 [Example 191] — lower, 493%
- COc1ccc2c(cnn2C2CCN(C(=O)NC3CCCCC3)CC2)c1 [Example 40] — higher, 3205%
- N#Cc1ccc2c(cnn2C2CCN(C(=O)NC3CCC(F)(F)CC3)CC2)c1 [Example 198] — lower, 268%
- Cc1ccc2c(cnn2C2CCN(C(=O)C3CCC(F)(F)CC3)CC2)c1 [Example 138] — higher, 642%
- CCOc1nn(C2CCN(C(=O)NC3CCOCC3)CC2)c2ccc(C(F)(F)F)cc12 [Example 267] — lower, 292%
- COC1CCC(NC(=O)N2CCC(n3ncc4cc(C)ccc43)CC2)CC1 (stereo not drawn) [Example 91] — lower, 217%
- CCc1cnc2c(cnn2C2CCN(C(=O)NC3CCC(OC)CC3)CC2)c1 (stereo not drawn) [Example 100] — lower, 198%
- O=C(Nc1ccc(Cl)nn1)N1CCC(n2ncc3cc(C4CC4)ccc32)CC1 [Example 204] — lower, 193%
- CCc1ccc2c(cnn2[C@H]2CC[C@@H](NC(=O)C3CCCCC3)CC2)c1 [Example 119] — higher, 2154%
- CCc1ccc2c(c1)c(COC)nn2C1CCN(C(=O)NC2CCC(F)(F)CC2)CC1 [Example 157] — lower, 366%
- O=C(NC1CCCC1)N1CCC(n2ncc3cc(OC(F)(F)F)ccc32)CC1 [Example 229] — higher, 689%
- COCc1cccc2c1cnn2C1CCN(C(=O)NC2CCCCC2)CC1 [Example 165] — lower, 442%
- COc1ccc2c(cnn2C2CCN(C(=O)N[C@H]3CC[C@H](OC)CC3)CC2)c1C [Example 279] — lower, 185%
- [2H]C([2H])([2H])c1ccc2c(cnn2C2CCN(C(=O)NC3CCC(OCC)CC3)CC2)c1 (stereo not drawn) [Example 314] — higher, 949%
- COCC1CCC(NC(=O)N2CCC(n3ncc4cc(F)ccc43)CC2)CC1 (stereo not drawn) [Example 236] — lower, 331%
- [2H]C([2H])([2H])O[C@H]1CC[C@H](NC(=O)N2CCC(n3ncc4c(CC)cccc43)CC2)CC1 [Example 307] — lower, 464%

Same assay, conditions: test compound 10 μmol/L; ACh added at EC20; ratio of RLU (Max-Min) of test wells to control wells; read-out: α7PAM (%) @ 10 μmol/L

Point of comparison: `CCc1ccc2c(cnn2[C@H]2CC[C@@H](C(=O)NC3CCC(F)(F)CC3)CC2)c1` [Example 6, cis-N-(4,4-difluorocyclohexyl)-4-(5-ethyl-1H-indazol-1-yl)cyclohexanecarboxamide], activity at 10 µM 285%. Against it:
- CO[C@H]1CC[C@H](NC(=O)N2CCC(n3ncc4cc(OC5CC5)ccc43)CC2)CC1 [Example 230, 4-[5-(cyclopropoxy)-1H-indazol-1-yl]-N-(trans-4-methoxycyclohexyl)piperidine-1-carboxamide] — higher, 621%
- CCOc1c(C)ccc2c1cnn2C1CCN(C(=O)N[C@H]2CC[C@H](OC)CC2)CC1 [Example 145, 4-(4-ethoxy-5-methyl-1H-indazol-1-yl)-N-(trans-4-methoxycyclohexyl)piperidine-1-carboxamide] — higher, 804%

Source: US8765786B2, “1-substituted indazole derivative” (Dainippon Sumitomo Pharma Co., Ltd., priority 2012, dated 2014)
